Experimental data reported in patent US9387246B2, “Treatment methods for rheumatoid arthritis” (priority 2013, dated 2016).

Assays:
[1] = tested on: Rheumatoid arthritis patients; assay type: in vivo, human; details: for Treatment effectiveness (reason for discontinuation / earlier trial): patient 16, January 2014
Source text: A treatment method administered to a patient may be a combination of one or more treatment methods.

IL-6 = details: literature 1990-2012, ACR abstracts 2006-2013; cited from earlier work
MMP-1 = details: literature 1990-2012, ACR abstracts 2006-2013; cited from earlier work
MMP-3 = details: literature 1990-2012, ACR abstracts 2006-2013; cited from earlier work
VEGF-A = details: literature 1990-2012, ACR abstracts 2006-2013; cited from earlier work
TNFR1 = tested on: TNFR1; parameters: key: Y: biomarkers that are known to be positively affected by a treatment method (i.e., biomarkers that are known to have a favorable response to a treatment method); N: biomarkers that are not known to be positively affected by a treatment method (i.e., biomarkers that are known to have an unfavorable response to a treatment method); biomarkers that are known to be positively affected by a ORENCIA, the brand name of Atabacept; details: literature 1990-2012, ACR abstracts 2006-2013; cited from earlier work
YKL-40 = details: literature 1990-2012, ACR abstracts 2006-2013; cited from earlier work
Leptin = details: literature; Leptin usable as biomarker only in patients with 15% or less body fat; cited from earlier work
Resistin = details: literature 1990-2012, ACR abstracts 2006-2013; cited from earlier work
SAA = details: literature 1990-2012, ACR abstracts 2006-2013; cited from earlier work
CRP = details: literature 1990-2012, ACR abstracts 2006-2013; cited from earlier work
[2] = tested on: Rheumatoid arthritis patients; experiment: Treatment outcome (effectiveness, clinical course) of treatment methods (Example 2); assay type: in vivo, human
Description: The patients were treated with the selected treatment methods for at least five months and the post-treatment biomarker levels and VECTRA DA Score were determined by VECTRA® DA test along with CRP level and ESR. The change is VECTRA DA Score, CRP level and ESR was determined to determine the change in disease activity and effectiveness of the selected treatment method.

[3] = tested on: Rheumatoid arthritis patients; experiment: Change in VECTRA DA Score after treatment, longer duration (Example 3); assay type: in vivo, human; details: Patient 6, March 2012
Description: Sixteen rheumatoid arthritis patients were selected for treatment by treatment methods that were selected using the algorithm disclosed herein. Some patients were the same as the patients discussed under Example 2. Example 3, however, tracks patients' responses to treatment for a longer duration and uses VECTRA DA Score to determine effectiveness of the treatment.
VECTRA® DA test was conducted for each patient to determine serum levels of the all the biomarkers and VECTRA DA Score in each patient before treatment. The collection of patients closely resembles the random patient population available nationwide as shown by a comparison of the distribution of VECTRA DA Scores in FIG. 6, as noted under Example 2.
The patients were treated with the selected treatment methods and the post-treatment biomarker levels and VECTRA DA Score were determined by VECTRA® DA test. The change is VECTRA DA Score was determined to determine the change in disease activity and effectiveness of the selected treatment method.
The treatment method (one method or a combination of methods) was determined to be effective when the post-treatment disease activity was lower than the pre-treatment disease activity in the patient: when VECTRA DA Score was lower than the pre-treatment VECTRA DA Score. Specifically, the treatment method was determined to be effective when the post-treatment disease activity was at least 20% lower than the pre-treatment disease activity, or when the VECTRA DA Score is decreased to a lower disease activity level after the treatment (i.e., from high to moderate, or high to low, or moderate to low).

[4] = tested on: Rheumatoid arthritis patients; experiment: VECTRA DA test: serum levels of biomarkers, % elevation over control (InFoRM study); assay type: in vivo, human; details: Patient 6, March 2012
Source text: VECTRA® DA test is a multi-biomarker disease activity (MBDA) blood test sold by Crescendo Bioscience. The test provides a quantitative assessment of rheumatoid arthritis disease activity in patients by using twelve protein biomarkers—Vascular Cell Adhesion Molecule 1 (VCAM-1), Epidermal Growth Factor (EGF), Vascular Endothelial Growth Factor A (VEGF-A), Interleukin-6 (IL-6), Tumor Necrosis Factor Receptor Type 1 (TNFR1), Matrix Metalloproteinase-1 (MMP-1), Matrix Metalloproteinase-3 (MMP-3), YKL-40, Leptin, Resistin, Serum Amyloid A (SAA), and C-Reactive Protein (CRP). The twelve biomarkers in VECTRA® DA test are relevant to key aspects of the pathophysiology of RA. Li et al., Curr. Med. Res. & Opin. 29(1): 85-92 (2013). The test measures the concentrations of the biomarkers and provides the concentrations and percentile (RA percentile) value for each biomarker.
The VECTRA DA MBDA test uses Meso Scale Discovery (MSD, Gaithersburg, Md., USA) sandwich immunoassay electrochemiluminescent technology to measure biomarker levels. Eastman et al., J. of Pharmaceutical and Biomedical Analysis 70: 415-424 (2012). In the immunoassay, capture antibodies are spotted on carbon electrodes in a planar array and detection antibodies are labeled with an electrochemiluminescent ruthenium reporter. Id. Upon electrical stimulation, light is produced from reporter molecules bound to the electrode to determine biomarker concentration.

VCAM-1 = details: literature 1990-2012, ACR abstracts 2006-2013; cited from earlier work
[5] = Patient 6, outcome not reflected by change in any of the three disease markers, earlier treatments not algorithm-selected

Row | Molecule | IL-6 positively affected by treatment method (IL-6) | MMP-1 positively affected by treatment method (MMP-1) | MMP-3 positively affected by treatment method (MMP-3) | TNFR1 positively affected by treatment method (TNFR1) | YKL-40 positively affected by treatment method (YKL-40) | Resistin positively affected by treatment method (Resistin) | SAA positively affected by treatment method (SAA) | CRP positively affected by treatment method (CRP) | Treatment Outcome [2, 5] | VCAM-1 positively affected by treatment method (VCAM-1) | other results
1 | C[C@@H]1CCN(C(=O)CC#N)C[C@@H]1N(C)c1ncnc2[nH]ccc12 [TOFAC, Tofacitinib] | Y | Y | Y |  |  |  |  |  |  |  | Tapering of oral steroid, Prednisone ([1]; patient 16, XELJANZ 5 mg twice a day added March 2014): XELJANZ allowed
2 | O=C(O)c1cc(/N=N/c2ccc(S(=O)(=O)Nc3ccccn3)cc2)ccc1O [S, Sulfasalazine] | Y |  | Y | Y | N | N | Y | Y |  |  | VEGF-A positively affected by treatment method (VEGF-A): Y; Leptin positively affected by treatment method (Leptin): N
3 | Cc1oncc1C(=O)Nc1ccc(C(F)(F)F)cc1 [ARA, Leflunomide] | Y | Y | Y | Y |  | N | Y |  | (after failing | Y | Arthritis activity class of VECTRA DA Score [3]: high (a VECTRA DA Score of >44 reflects high disease activity); VECTRA DA Score [3]: 74; Patient could tolerate the drug in the past ([1]; in vivo): Patient could not; Toxicity for which the treatment was discontinued ([1]; in vivo): to bone marrow; WBC count relative to normal (reason for discontinuation) ([1]; in vivo): due to below; CRP elevated level [4]: 93%; IL-6 elevated level [4]: 98%; Leptin elevated level [4]: 90%; MMP-1 elevated level [4]: 40%; MMP-3 elevated level [4]: 91%; Resistin elevated level [4]: 63%; SAA elevated level [4]: 97%; TNF-R1 elevated level [4]: 73%; VCAM-1 elevated level [4]: 85%; VEGF-A elevated level [4]: 84%; YKL-40 elevated level [4]: 41%
4 | Cn1cnc([N+](=O)[O-])c1Sc1ncnc2nc[nH]c12 [Azathioprine (AZA), Azathioprine] |  |  |  |  |  |  |  |  | (after failing |  | Treatment Outcome ([2]; Patient 16, AZA from March 2012, triple therapy with CIMZIA from May 2012, based on VECTRA DA score): Not effective; Treatment effectiveness (reason for discontinuation / earlier trial) [1]: to inefficacy
5 | CCN(CCO)CCCC(C)Nc1ccnc2cc(Cl)ccc12 (stereo not shown) [P, Hydroxychloroquine] | Y | N | N | N | N | N | Y | Y |  | N | VEGF-A positively affected by treatment method (VEGF-A): N
6 | Rituximab | Y | N | N |  | N | N | N | Y |  | N | Leptin positively affected by treatment method (Leptin): N
7 | Certolizumab pegol (antibody, chains of the INN, looked up, V domains shown, Fab' PEG) VH: EVQLVESGGGLVQPGGSLRLSCAASGYVFTDYGMNWVRQAPGKGLEWMGWINTYIGEPIYADSVKGRFTFSLDTSKSTAYLQMNSLRAEDTAVYYCARGYRSYAMDYWGQGTLVTVSS VL: DIQMTQSPSSLSASVGDRVTITCKASQNVGTNVAWYQQKPGKAPKALIYSASFLYSGVPYRFSGSGSGTDFTLTISSLQPEDFATYYCQQYNIYPLTFGQGTKVEIK |  |  |  |  |  |  |  |  | (after failing |  | 
8 | TNF (CIMZIA) (antibody, chains of the INN, looked up, V domains shown, Fab' PEG) VH: EVQLVESGGGLVQPGGSLRLSCAASGYVFTDYGMNWVRQAPGKGLEWMGWINTYIGEPIYADSVKGRFTFSLDTSKSTAYLQMNSLRAEDTAVYYCARGYRSYAMDYWGQGTLVTVSS VL: DIQMTQSPSSLSASVGDRVTITCKASQNVGTNVAWYQQKPGKAPKALIYSASFLYSGVPYRFSGSGSGTDFTLTISSLQPEDFATYYCQQYNIYPLTFGQGTKVEIK |  |  |  |  |  |  |  |  |  |  | Treatment effectiveness (reason for discontinuation / earlier trial) [1]: without success
